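Assay format: 96-well plates, 48-hour exposure. GI50 = concentration required for 50% inhibition of growth. TGI denotes the concentration required for complete inhibition of growth.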
What was measured:
Test in all cases: NCI-60 cell line screen, 48 h
HL-60(TB) leukemia = tested on: HL-60(TB) leukemia
SK-MEL-28 melanoma = tested on: SK-MEL-28 melanoma
K-562 leukemia = tested on: K-562 leukemia
SNB-19 CNS = tested on: SNB-19 CNS
COLO 205 colon = tested on: COLO 205 colon
MCF7 breast = tested on: MCF7 breast
786-0 renal = tested on: 786-0 renal
IGROV1 ovarian = tested on: IGROV1 ovarian
SF-268 CNS = tested on: SF-268 CNS
OVCAR-4 ovarian = tested on: OVCAR-4 ovarian
M14 melanoma = tested on: M14 melanoma
A549 NSCLC = tested on: A549 NSCLC
HOP-62 NSCLC = tested on: HOP-62 NSCLC
NCI-H522 lung = tested on: NCI-H522 lung
SK-MEL-5 melanoma = tested on: SK-MEL-5 melanoma
TK-10 renal = tested on: TK-10 renal
MALME-3M melanoma = tested on: MALME-3M melanoma
SF-539 CNS = tested on: SF-539 CNS
T-47D breast = tested on: T-47D breast
HCT-15 colon = tested on: HCT-15 colon
ACHN renal = tested on: ACHN renal
HS 578T breast = tested on: HS 578T breast
OVCAR-3 ovarian = tested on: OVCAR-3 ovarian
NCI-H460 lung = tested on: NCI-H460 lung
MDA-MB-231 breast = tested on: MDA-MB-231 breast
RPMI-8226 leukemia = tested on: RPMI-8226 leukemia
BT-549 breast = tested on: BT-549 breast
CAKI-1 renal = tested on: CAKI-1 renal

Q: For `Cc1cc2c(cc1C)[n+](=O)c(C(=O)C(C)(C)C)c(C(F)(F)F)n2[O-]`, which TGI (HL-60(TB) leukemia) is on record?
A: 24.5 µM

Q: And the GI50 (SK-MEL-28 melanoma)?
A: > 100 µM

Q: And the TGI (SK-MEL-28 melanoma)?
A: > 100 µM

Q: What about the GI50 (K-562 leukemia) of the same compound?
A: 4.3 µM

Q: What about the TGI (K-562 leukemia) of the same compound?
A: 19.9 µM

Q: What about the GI50 (SNB-19 CNS) of the same compound?
A: 56.2 µM

Q: What about the TGI (SNB-19 CNS) of the same compound?
A: > 100 µM

Q: And the GI50 (COLO 205 colon)?
A: 54.4 µM

Q: What about the TGI (COLO 205 colon) of the same compound?
A: > 100 µM

Q: And the GI50 (MCF7 breast)?
A: 20.8 µM

Q: What about the TGI (MCF7 breast) of the same compound?
A: 77.7 µM

Q: What about the GI50 (786-0 renal) of the same compound?
A: 29.4 µM

Q: What about the TGI (786-0 renal) of the same compound?
A: > 100 µM

Q: And the GI50 (IGROV1 ovarian)?
A: 5.17 µM

Q: And the TGI (IGROV1 ovarian)?
A: 20.3 µM

Q: What about the GI50 (SF-268 CNS) of the same compound?
A: 16.6 µM

Q: What about the TGI (SF-268 CNS) of the same compound?
A: 82.5 µM

Q: And the GI50 (OVCAR-4 ovarian)?
A: 26.7 µM

Q: And the TGI (OVCAR-4 ovarian)?
A: > 100 µM

Q: What about the GI50 (M14 melanoma) of the same compound?
A: 27.5 µM

Q: What about the TGI (M14 melanoma) of the same compound?
A: 80.8 µM

Q: What about the GI50 (A549 NSCLC) of the same compound?
A: 8.61 µM

Q: What about the TGI (A549 NSCLC) of the same compound?
A: 26.2 µM

Q: And the GI50 (HOP-62 NSCLC)?
A: 17 µM

Q: What about the TGI (HOP-62 NSCLC) of the same compound?
A: 59.1 µM

Q: And the GI50 (NCI-H522 lung)?
A: 18.9 µM

Q: What about the TGI (NCI-H522 lung) of the same compound?
A: 49.6 µM

Q: And the GI50 (SK-MEL-5 melanoma)?
A: 12.5 µM

Q: What about the TGI (SK-MEL-5 melanoma) of the same compound?
A: 26.9 µM

Q: And the GI50 (TK-10 renal)?
A: 75.4 µM

Q: And the TGI (TK-10 renal)?
A: > 100 µM

Q: And the GI50 (MALME-3M melanoma)?
A: 24.2 µM

Q: What about the TGI (MALME-3M melanoma) of the same compound?
A: 68.1 µM

Q: What about the GI50 (SF-539 CNS) of the same compound?
A: 16.6 µM

Q: And the TGI (SF-539 CNS)?
A: 41.9 µM

Q: And the GI50 (T-47D breast)?
A: 32.3 µM

Q: What about the TGI (T-47D breast) of the same compound?
A: > 100 µM

Q: And the GI50 (HCT-15 colon)?
A: 13.7 µM

Q: What about the TGI (HCT-15 colon) of the same compound?
A: 55.6 µM

Q: What about the GI50 (ACHN renal) of the same compound?
A: 16.1 µM

Q: And the TGI (ACHN renal)?
A: 34.5 µM

Q: And the GI50 (HS 578T breast)?
A: 14.4 µM

Q: What about the TGI (HS 578T breast) of the same compound?
A: 58.6 µM

Q: What about the GI50 (OVCAR-3 ovarian) of the same compound?
A: 21.2 µM

Q: What about the TGI (OVCAR-3 ovarian) of the same compound?
A: 50.1 µM

Q: And the GI50 (NCI-H460 lung)?
A: 13.7 µM

Q: What about the TGI (NCI-H460 lung) of the same compound?
A: 34 µM

Q: What about the GI50 (MDA-MB-231 breast) of the same compound?
A: 13.6 µM

Q: And the TGI (MDA-MB-231 breast)?
A: 37.5 µM

Q: And the GI50 (RPMI-8226 leukemia)?
A: 3.57 µM

Q: What about the TGI (RPMI-8226 leukemia) of the same compound?
A: 15.4 µM

Q: And the GI50 (BT-549 breast)?
A: 12 µM

Q: What about the TGI (BT-549 breast) of the same compound?
A: 50.5 µM

Q: What about the GI50 (CAKI-1 renal) of the same compound?
A: 21.3 µM

Q: And the TGI (CAKI-1 renal)?
A: 55 µM

Source: PubChem BioAssay (NCI)
